Test results published in ChEMBL document CHEMBL3872275, “Synthesis and antiproliferative activity of 2-chlorophenyl carboxamide thienopyridines” (Bioorg Med Chem Lett, 2017).

Tests used:
[1] = Antiproliferative activity against human MDA-MB-231 cells assessed as cell growth at 1 uM after 3 days by thymidine incorporation assay relative to control; format: functional; settings: MDA-MB-231, 72 h, read-out: Activity
[2] = Growth inhibition of human MDA-MB-468 cells at 10 uM after 48 hrs by SRB assay relative to control; format: functional; settings: MDA-MB-468, 48 h, values are per cent of control
[3] = Antiproliferative activity against human HCT116 cells assessed as cell growth at 1 uM after 3 days by thymidine incorporation assay relative to control; format: functional; settings: HCT-116, 72 h, read-out: Activity
[4] = Growth inhibition of human HCT116 cells at 10 uM after 48 hrs by SRB assay relative to control; format: functional; settings: HCT-116, 48 h, values are per cent of control
[5] = Antiproliferative activity against human MDA-MB-468 cells assessed as cell growth at 1 uM after 3 days by thymidine incorporation assay relative to control; format: functional; settings: MDA-MB-468, 72 h, read-out: Activity
[6] = Growth inhibition of human MDA-MB-231 cells at 10 uM after 48 hrs by SRB assay relative to control; format: functional; settings: MDA-MB-231, 48 h, read-out: GI
[7] = Antiproliferative activity against human HCT116 cells after 3 days by thymidine incorporation assay; format: functional, cell-based; settings: HCT-116, 72 h
[8] = Antiproliferative activity against human MDA-MB-231 cells after 3 days by thymidine incorporation assay; format: functional, cell-based; settings: MDA-MB-231, 72 h
[9] = Antiproliferative activity against human MDA-MB-468 cells after 3 days by thymidine incorporation assay; format: functional, cell-based; settings: MDA-MB-468, 72 h
[10] = Antiproliferative activity against human K562 cells after 3 days by thymidine incorporation assay; format: functional, cell-based; settings: K562, 72 h

SMILES	growth at 1 µM [1] [%]	growth, % of control at 10 µM [2] [%]	growth at 1 µM [3] [%]	growth, % of control at 10 µM [4] [%]	growth at 1 µM [5] [%]	inhibition of growth at 10 µM [6] [%]	IC50 [7] [nM]	IC50 [8] [nM]	IC50 [9] [nM]	IC50 [10] [nM]
Nc1c(C(=O)Nc2ccccc2Cl)sc2nc3c(cc12)C(=O)CCC3	104	25	99	76	94	70	–	–	–	–
Nc1c(C(=O)Nc2ccccc2Cl)sc2nc3c(cc12)CCCCC3	101	–	94	–	81	–	–	–	–	–
Nc1c(C(=O)Nc2ccccc2Cl)sc2nc3c(cc12)CCCC3	119	91	94	107	95	100	–	–	–	–
Nc1c(C(=O)Nc2ccccc2Cl)sc2nc3c(cc12)CCCCCC3	56	–	71	–	100	–	–	–	–	–
O=c1c2sc3nc4c(cc3c2nnn1-c1ccccc1Cl)CCCCC4	105	–	99	–	90	–	–	–	–	–
O=C1CCCc2nc3sc4c(=O)n(-c5ccccc5Cl)nnc4c3cc21	97	86	97	96	91	94	–	–	–	–
Cc1nc2sc(C(=O)Nc3ccccc3Cl)c(N)c2cc1C(C)O (stereo not drawn)	108	–	97	–	96	–	–	–	–	–
Nc1c(C(=O)Nc2ccccc2Cl)sc2nc3c(cc12)C(O)CCC3 (stereo not drawn)	30	26	11	30	14	58	616	675	546	431
O=c1c2sc3nc4c(cc3c2nnn1-c1ccccc1Cl)C(O)CCC4 (stereo not drawn)	91	91	96	102	80	86	–	–	–	–
CC(=O)OC1CCCc2nc3sc4c(=O)n(-c5ccccc5Cl)nnc4c3cc21 (stereo not drawn)	95	–	98	–	93	–	–	–	–	–
O=c1c2sc3nc4c(cc3c2nnn1-c1ccccc1Cl)CCCCCC4	92	–	90	–	85	–	–	–	–	–
CC(=O)OC1CCCc2nc3sc4c(=O)n(-c5ccccc5Cl)c(C)nc4c3cc21 (stereo not drawn)	82	–	92	–	64	–	–	–	–	–
Nc1c(C(=O)Nc2ccccc2Cl)sc2nc3c(cc12)CCCCCCCC3	104	–	91	–	78	–	–	–	–	–
Cc1nc2sc3c(=O)n(-c4ccccc4Cl)nnc3c2cc1C(C)O (stereo not drawn)	100	–	100	–	118	–	–	–	–	–
CC(=O)OC1CCCc2nc3sc(C(=O)Nc4ccccc4Cl)c(N)c3cc21 (stereo not drawn)	10	–	3	–	7	–	184	201	181	192
O=c1c2sc3nc4c(cc3c2nnn1-c1ccccc1Cl)CCCC4	94	88	99	88	81	81	–	–	–	–
CC(=O)c1cc2c(nc1C)sc1c(=O)n(-c3ccccc3Cl)nnc12	103	–	98	–	96	–	–	–	–	–
CC(=O)c1cc2c(N)c(C(=O)Nc3ccccc3Cl)sc2nc1C	100	–	87	–	104	–	–	–	–	–
O=c1c2sc3nc4c(cc3c2nnn1-c1ccccc1Cl)CCCCCCCC4	91	–	97	–	82	–	–	–	–	–
